One assay concerns the target T1, human PAH with the R408W mutation (Homo sapiens, UniProt P00439, R408W).
T1 construct: expressed in transfected cells
T1 sequence (P00439 1-452 R408W): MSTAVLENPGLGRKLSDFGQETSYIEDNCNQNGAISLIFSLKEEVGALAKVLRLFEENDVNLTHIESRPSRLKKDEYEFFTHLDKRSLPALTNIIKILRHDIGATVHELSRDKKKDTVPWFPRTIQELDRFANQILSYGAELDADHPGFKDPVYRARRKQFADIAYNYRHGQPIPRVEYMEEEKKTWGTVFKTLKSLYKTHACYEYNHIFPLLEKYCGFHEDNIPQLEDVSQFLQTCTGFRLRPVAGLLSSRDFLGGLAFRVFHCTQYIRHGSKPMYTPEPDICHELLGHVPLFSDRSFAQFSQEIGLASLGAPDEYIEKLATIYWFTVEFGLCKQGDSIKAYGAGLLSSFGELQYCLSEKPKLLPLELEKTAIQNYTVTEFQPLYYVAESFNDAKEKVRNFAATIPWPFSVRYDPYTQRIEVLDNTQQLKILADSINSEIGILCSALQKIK
Put plainly: Cell Based Phenylalanine Flux Assay. The following applies: A375 cells expressing human R408W PAH; 24 hrs compound incubation; 13C-Tyrosine by LC-MS; average where tested multiple times; read-out: AC50.
Usually AC50 stands for the concentration at which the activity in the assay is half-maximal. In the case of `O=C(c1nnc(-c2cn[nH]c2)o1)N1CCc2[nH]cnc2[C@@H]1c1nc2c(F)cccc2s1` [Example 1864, (R)-(5-(1H-pyrazol-4-yl)-1,3,4-oxadiazol-2-yl)(4-(4-fluorobenzo[d]thiazol-2-yl)-6,7-dihydro-1H-imidazo[4,5-c]pyridin-5(4H)-yl)methanone], the AC50 lay within 1 to 5 µM.
On the same count and under the same terms, the figure for `CN(C)CCc1ccc2c(C(=O)N3CCc4[nH]cnc4[C@@H]3c3nc4c(F)cccc4s3)cnn2c1` [Example 1600, (R)-(6-(2-(dimethylamino)ethyl)pyrazolo[1,5-a]pyridin-3-yl)(4-(4-fluorobenzo[d]thiazol-2-yl)-6,7-dihydro-1H-imidazo[4,5-c]pyridin-5(4H)-yl)methanone] is 1 to 5 µM.
The same measure, in the same setting: the figure for `COCc1ncc(C(=O)N2CCc3[nH]cnc3[C@@H]2c2nc3ccccc3s2)s1` [Example 1186, (R)-(4-(benzo[d]thiazol-2-yl)-6,7-dihydro-1H-imidazo[4,5-c]pyridin-5(4H)-yl)(2-(methoxymethyl)thiazol-5-yl)methanone] is 1 to 5 µM.
The same measure, in the same setting: the figure for `O=C(c1nc2ccccc2o1)N1CCc2[nH]cnc2[C@H]1c1nc2ccccc2[nH]1` [Example 999, (S)-(4-(1H-benzo[d]imidazol-2-yl)-6,7-dihydro-1H-imidazo[4,5-c]pyridin-5(4H)-yl)(benzo[d]oxazol-2-yl)methanone] is 1 to 5 µM.
With `COc1cccc(/C=C/C(=O)N2CCc3[nH]cnc3[C@H]2c2nc3ccccc3s2)c1` [Example 1011], the AC50 was in the range of 0.5 to 1 µM.
Same read-out and setting: the figure for `O=C(c1nnc(-c2cc[nH]n2)o1)N1CCc2[nH]cnc2[C@@H]1c1nc2c(F)cccc2s1` [Example 1885, (R)-(5-(1H-pyrazol-3-yl)-1,3,4-oxadiazol-2-yl)(4-(4-fluorobenzo[d]thiazol-2-yl)-6,7-dihydro-1H-imidazo[4,5-c]pyridin-5(4H)-yl)methanone] is 1 to 5 µM.
Regarding `O=C(c1cnc(C(F)(F)F)o1)N1CCc2[nH]cnc2[C@@H]1c1nc2ccccc2s1` [Example 1348, (R)-(4-(benzo[d]thiazol-2-yl)-6,7-dihydro-1H-imidazo[4,5-c]pyridin-5(4H)-yl)(2-(trifluoromethyl)oxazol-5-yl)methanone], the AC50 lay within 1 to 5 µM.
Same read-out and setting: to `COCCc1ccc2c(C(=O)N3CCc4[nH]cnc4[C@H]3c3nc4ccccc4s3)c(C#N)nn2c1` [Example 1867, (S)-3-(4-(benzo[d]thiazol-2-yl)-4,5,6,7-tetrahydro-1H-imidazo[4,5-c]pyridine-5-carbonyl)-6-(2-methoxyethyl)pyrazolo[1,5-a]pyridine-2-carbonitrile] belongs less than 0.5 µM; to `O=C(c1oc(NC2CC2)nc1C(F)F)N1CCc2[nH]cnc2[C@H]1c1nc2ccccc2s1` [Example 1715], less than 0.5 µM; to `O=C(c1cn(CC(F)(F)F)nc1C(F)F)N1CCc2[nH]cnc2[C@H]1c1nc2c(F)cccc2s1` [Example 1987], less than 0.5 µM.
Same read-out and setting: the figure for `CC(C)(O)c1nc(C2CC2)c(C(=O)N2CCc3[nH]cnc3[C@H]2c2nc3ccccc3s2)o1` [Example 1543] is less than 0.5 µM.
Regarding `CC(C)(F)c1ncc(C(=O)N2CCc3[nH]cnc3[C@@H]2c2nc3ccccc3s2)o1` [Example 1456, (R)-(4-(benzo[d]thiazol-2-yl)-6,7-dihydro-1H-imidazo[4,5-c]pyridin-5(4H)-yl)(2-(2-fluoropropan-2-yl)oxazol-5-yl)methanone], the AC50 was in the range of 1 to 5 µM.
Take `Cc1cccc2sc([C@H]3c4nc[nH]c4CCN3C(=O)c3cnco3)nc12` [Example 2014, (R)-(4-(4-methylbenzo[d]thiazol-2-yl)-6,7-dihydro-1H-imidazo[4,5-c]pyridin-5(4H)-yl)(oxazol-5-yl)methanone]: the AC50 is more than 5 µM.
On the same count and under the same terms, the figure for `O=C(c1nc(Cl)cs1)N1CCc2[nH]cnc2[C@@H]1c1nc2ccccc2s1` [Example 1058, (R)-(4-(benzo[d]thiazol-2-yl)-6,7-dihydro-1H-imidazo[4,5-c]pyridin-5(4H)-yl)(4-chlorothiazol-2-yl)methanone] is 1 to 5 µM; for `O=C(c1ocnc1C(F)F)N1CCc2[nH]cnc2[C@@H]1c1nc2ccccc2s1` [Example 1540, (R)-(4-(benzo[d]thiazol-2-yl)-6,7-dihydro-1H-imidazo[4,5-c]pyridin-5(4H)-yl)(4-(difluoromethyl)oxazol-5-yl)methanone] it is less than 0.5 µM.
On the same count and under the same terms, the figure for `O=C(C1CC1)N1CCc2[nH]cnc2[C@@H]1c1nc2ccc(Cl)cc2[nH]1` [Example 959, (R)-(4-(6-chloro-1H-benzo[d]imidazol-2-yl)-6,7-dihydro-1H-imidazo[4,5-c]pyridin-5(4H)-yl)(cyclopropyl)methanone] is more than 5 µM; for `O=C(CCc1nnc(Br)s1)N1CCc2[nH]cnc2[C@@H]1c1nc2ccccc2s1` [Example 1090, (R)-1-(4-(benzo[d]thiazol-2-yl)-6,7-dihydro-1H-imidazo[4,5-c]pyridin-5(4H)-yl)-3-(5-bromo-1,3,4-thiadiazol-2-yl)propan-1-one] it is more than 5 µM; for `O=C(c1nncs1)N1CCc2[nH]cnc2[C@H]1c1nc2ccccc2s1` [Example 1068] it is 0.5 to 1 µM.
Still for that read-out and setting: the figure for `N#Cc1ccn2ncc(C(=O)N3CCc4[nH]cnc4[C@H]3c3nc4ccccc4s3)c2c1` [Example 1085, (S)-3-(4-(benzo[d]thiazol-2-yl)-4,5,6,7-tetrahydro-1H-imidazo[4,5-c]pyridine-5-carbonyl)pyrazolo[1,5-a]pyridine-5-carbonitrile] is less than 0.5 µM; for `O=C(c1cnn(CC2CC(F)(F)C2)c1Cl)N1CCc2[nH]cnc2[C@H]1c1nc2c(F)cccc2s1` [Example 1989, (S)-(5-chloro-1-((3,3-difluorocyclobutyl)methyl)-1H-pyrazol-4-yl)(4-(4-fluorobenzo[d]thiazol-2-yl)-6,7-dihydro-1H-imidazo[4,5-c]pyridin-5(4H)-yl)methanone] it is 1 to 5 µM.
As for `COCCc1nc(C)c(C(=O)N2CCc3[nH]cnc3[C@@H]2c2nc3ccccc3s2)o1` [Example 1730, (R)-(4-(benzo[d]thiazol-2-yl)-1,4,6,7-tetrahydro-5H-imidazo[4,5-c]pyridin-5-yl)(2-(2-methoxyethyl)-4-methyloxazol-5-yl)methanone], the AC50 was more than 5 µM.
`Cc1c(C(=O)N2CCc3[nH]cnc3[C@@H]2c2nc3c(F)cccc3s2)cnn1CC(F)(F)F` [Example 1920, (R)-(4-(4-fluorobenzo[d]thiazol-2-yl)-6,7-dihydro-1H-imidazo[4,5-c]pyridin-5(4H)-yl)(5-methyl-1-(2,2,2-trifluoroethyl)-1H-pyrazol-4-yl)methanone]: the AC50 is more than 5 µM.

Still in this assay, the particulars now being: A375 cells expressing human R408W PAH; 24 hrs with compound; 13C-Tyrosine by LC-MS; average where tested multiple times; read-out: AC50.
Take `O=C(c1ccn(-c2ccccn2)n1)N1CCc2[nH]cnc2C1c1nc2c(F)cccc2s1` (stereo not shown): the AC50 fell in the range of 1 to 5 µM.
Still for that read-out and setting: to `O=C(c1cnn2cc(N3CCCC3)ccc12)N1CCc2[nH]cnc2C1c1nc2ccccc2s1` (stereo not shown) belongs more than 5 µM; to `O=C(c1nc2ccccc2s1)N1CCc2[nH]cnc2C1c1nc2cccc(F)c2s1` (stereo not shown), 1 to 5 µM; to `Cn1nc(C(F)F)nc1C(=O)N1CCc2[nH]cnc2C1c1nc2c(F)cccc2s1` (stereo not shown), 1 to 5 µM.
Consider `CN(C)CCCc1nnc(C(=O)N2CCc3[nH]cnc3[C@@H]2c2nc3ccccc3s2)o1` (single isomer, unassigned), for which the AC50 is more than 5 µM.
For the molecule `Cc1nnc(CC(=O)N2CCc3[nH]cnc3C2c2nc3ccc(F)cc3s2)s1` (stereo not shown), the AC50 is more than 5 µM.

Source of the values: patent publication US20250171438A1 (Agios Pharmaceuticals, Inc., priority 2022, published 2025).
